Assay [1] deals with GH361. In words: Mannan-induced BtCepA expression in the mouse gut (ceftriaxone challenge, fecal CFU). The class given is in vivo, mice. The source says: FIG. 4. In vivo induction of ceftriaxone resistance using exogenous α-mannan. Crosses indicate times of i.p. injections. GA: Group A of mice received mannan in their drinking water. GB: Group B of mice which were given access to regular drinking water. CRO: ceftriaxome.
“α-mannan is a fungal cell wall glycan that contains α-mannosidic linkages similar to those found in the core regions of N-linked glycans present on secreted mucus and epithelial surfaces” (Martens et al., 2011). However, expression levels of the PUL genes involved in mannan utilization in mice fed a diet lacking exogenous α-mannan were only partial when compared to other PULs showing high activity in vivo (Martens et al., 2008). The effectiveness of the mannan induced system was tested in vivo in seven-week-old male C57BL/6J WT mice with established B. thetaiotaomicron within the intestine, housed in a conventional animal facility after treating for 3 days with 1 mg/ml ampicillin and 1 mg/ml neomycin administered via drinking water. To achieve this, the strain GH361 containing the BtCepA gene controlled by the inducible low expression system (Table 1) was administered by oral gavage (1×10^8 colony-forming units (CFU) in 100 μl of phosphate buffered saline) to two groups of 4 mice. One of the groups (Group A) were given drinking water with containing 2.5% (v/v) mannan-oligosaccharide supplement (ActiveMOS, Orffa, Werkendam, The Netherlands) prepared treating the powder (10% w/v) with 1% NaOH at 100° C. for 1 h, cooling and neutralizing to pH7 with dilute HCl solution (Huang et al., 2010). […] Both groups of mice were challenged every other day via i.p. injection with ceftriaxone (0.4 mg/mice), a third-generation cephalosporin that is excreted via the biliary route and affects the colonic microbiota (Arvidsson et al., 1982). The MICs of ceftriaxone determined for GH361 were 8 mg/L when cells were grown in the absence of mannan and 64 mg/L when mannan was added to the growth medium. […]

For assay [2], the system named is GH361. In words: MIC of ceftriaxone for GH361. The following applies: Bacteroides thetaiotaomicron. The assay is classed as cell-based, B. thetaiotaomicron. How it is done:
“α-mannan is a fungal cell wall glycan that contains α-mannosidic linkages similar to those found in the core regions of N-linked glycans present on secreted mucus and epithelial surfaces” (Martens et al., 2011). However, expression levels of the PUL genes involved in mannan utilization in mice fed a diet lacking exogenous α-mannan were only partial when compared to other PULs showing high activity in vivo (Martens et al., 2008). The effectiveness of the mannan induced system was tested in vivo in seven-week-old male C57BL/6J WT mice with established B. thetaiotaomicron within the intestine, housed in a conventional animal facility after treating for 3 days with 1 mg/ml ampicillin and 1 mg/ml neomycin administered via drinking water. To achieve this, the strain GH361 containing the BtCepA gene controlled by the inducible low expression system (Table 1) was administered by oral gavage (1×10^8 colony-forming units (CFU) in 100 μl of phosphate buffered saline) to two groups of 4 mice. […] The MICs of ceftriaxone determined for GH361 were 8 mg/L when cells were grown in the absence of mannan and 64 mg/L when mannan was added to the growth medium. […]

The test system of a further assay is B. thetaiotaomicron. The assay can be described thus: Minimum inhibitory concentration of ampicillin for variant strains with or without mannan. The assay is classed as cell-based. The following applies: Bacteroides thetaiotaomicron, read-out: minimum inhibitory concentration (MIC) of ampicillin. From the text: Since optimization of this novel gene expression system was based upon the use of a heterologous reporter gene, the system was validated by determining if it can be used to study B. thetaiotaomicron genes. For this purpose, the complementation of a deletion mutant of BtcepA (Stentz et al., 2015), a cephalosporinase gene involved in the resistance of bacterial cells to β-lactam antibiotics, was undertaken. The primer pair Lactamase_F and Lactamase_EcoRI_R was used to amplify an 885-bp region from B. thetaiotaomicron VPI-5482 genomic DNA encoding BtcepA. […] The β-lactamase activity was measured after 2 h of induction with increasing concentrations of mannan (Table 4). […] Periplasmic proteins were prepared as described by Stentz et al. (Stentz et al., 2015). β-lactamase activity was assessed spectrophotometrically by hydrolysis of nitrocefin according to the manufacturer's instructions (Calbiochem). […] The basal level measured for the low expression system was negligible since it represented only 2.7% of the activity measured for the wild-type control strain. To establish how these measured activities translate into resistance to β-lactam antibiotics the minimum inhibitory concentration (MIC) of the β-lactam antibiotic ampicillin was determined for each variant strain grown in the presence or absence of mannan.

Each structure is given as a SMILES string. Converted amounts (≈) assume the structure as drawn. Read-outs that look alike come from different tables or passages of the source.

Consider `CO/N=C(\C(=O)N[C@@H]1C(=O)N2C(C(=O)O)=C(CSc3nc(=O)c(=O)[nH]n3C)CS[C@H]12)c1csc(N)n1` [ceftriaxone], for which the “effect on GH361 population levels” value in the assay with GH361 [1] (ceftriaxone increased to 0.8 mg, both groups) is recorded as “decreased significantly”. Also, the “effect on levels of GH361 (CFU in fecal samples)” value with GH361 [1] (group A given mannan in drinking water, three successive i.p. doses 0.4 mg/mice) is given as “no effect”. Besides, the “decrease of levels of GH361 (CFU in fecal samples)” value with GH361 [1] (group B not given mannan, three successive i.p. doses 0.4 mg/mice) is “approximately 15 fold”. In addition, the MIC with GH361 [2] (read-out: MIC of ceftriaxone, GH361, mannan added to the growth medium) was determined as 64 µg/mL; in the assay with GH361 [2] (read-out: MIC of ceftriaxone, GH361 grown in the absence of mannan) it was 8 µg/mL.
Regarding `CC1(C)S[C@@H]2[C@H](NC(=O)[C@H](N)c3ccccc3)C(=O)N2[C@H]1C(=O)O` [ampicillin], the MIC in the assay on B. thetaiotaomicron is 4 to 2050 µg/mL (≈ 11.4 to 5860 µM).
